Molecules are shown by their SMILES. Several values for one entry are separate records, joined by “and”; a condition that tells them apart may be missing. Equal entries are not always repeated.

We go through 4 compounds from EP4763837A1, “PHOTOCHROMIC COMPOUND, CURABLE COMPOSITION, OPTICAL ARTICLE, LENS, AND EYEGLASSES” (TOKUYAMA CORPORATION, priority 2023, dated 2025).

What all share (assay type): physicochemical
The nature of data set [1]: Photochromic property of photochromic laminate made by coating method. The settings on record: for Residual ratio: laminate by coating method, A96/A0 x 100 after 96 hours accelerated degradation, xenon weather meter X25. The method, boiled down:
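Compound at 0.25 mmol per 100 g methacrylate monomer mix, spin-coated 40 µm on a primed thiourethane lens, photocured 90 s under N2, then 110°C for 1 h. λmax and A23 measured after 240 s irradiation at 23°C; τ1/2 is time to half-fade after irradiation stops. Residual ratio A96/A0 after 96 h xenon weathering.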

Data set [2] is described as follows: Photochromic property of binder sheet (photochromic layer made by binder method). The settings on record: for Residual ratio: A96/A0 x 100 after 96 hours accelerated degradation, xenon weather meter X25; for Color developing density at 23°C: absorbance difference after 240 seconds irradiation at the maximum absorption wavelength of the same line. The procedure: (§1) The resulting photochromic laminates were evaluated by the below-mentioned methods. • (1) Photochromic property • [1] Maximum absorption wavelength (λmax): This is the maximum absorption wavelength after color development determined by a spectrophotometer manufactured by Otsuka Electronics Co., Ltd. (instantaneous multichannel photo detector MCPD3000) and was used as an index of a color tone upon color development. • [2] Color developing density at 23°C (A23): This is a difference between an absorbance {ε(240)} after irradiation with light at 23°C for 240 seconds and an absorbance ε(0) when not irradiated with light at the maximum absorption wavelength and was used as an index of a color developing density. The higher this value is, the better a photochromic property is. • [3] Color fading half-life at 23°C [τ1/2 (sec).)]: This is a period of time taken by an absorbance at the maximum absorption wavelength of a sample to decrease to 1/2 of {ε(240)-ε(0)} when irradiation is stopped after irradiation with light at 23°C for 240 seconds, and was used as an index of a color fading rate. The shorter this period of time is, the faster the color fading rate is. • [4] Residual ratio (A96/A0 x 100): The resulting photochromic plastic lens was subjected to accelerated degradation for 96 hours using a xenon weather meter X25 manufactured by Suga Test Instruments Co., Ltd. Color developing densities were then evaluated before and after a test, and a color developing density before the test (A0) and a color developing density after the test (A96) were measured. A ratio (A96/A0) was determined as a residual ratio and was used as an index of color development durability. The higher the residual ratio is, the more durable the color development is.
A binder sheet was produced as follows. The binder sheet was made by laminating a first optical sheet, a first adhesive layer, a photochromic layer, a second adhesive layer, and a second optical sheet in this order. A polycarbonate sheet with a thickness of 400 µm was used as the first optical sheet and the second optical sheet.
A 2 L four-necked flask equipped with a stirring blade, a condense tube, a thermometer, and a nitrogen gas inlet tube was charged with 315 parts by mass of polycarbonate diol with a number average molecular weight of 1000, 100 parts by mass of isophorone diisocyanate, and 72 parts by mass of toluene and reacted under a nitrogen atmosphere at 100°C for 7 hours. Thus, a urethane prepolymer with a terminal isocyanate group was synthesized. After the reaction of the above-mentioned urethane prepolymer was completed, the resulting reaction liquid was cooled to about 0°C and dissolved in 205 parts by mass of tertiary-butyl alcohol and 382 parts by mass of diethyl ketone, and then a temperature of the resulting liquid was kept at 0°C. Next, a mixed solution of 21.3 parts by mass of bis-(4-aminocyclohexyl)methane serving as a chain extender and 20 parts by mass of diethyl ketone was added dropwise thereto within 30 minutes and reacted at 0°C for 1 hour. Then, 8.1 parts by mass of 1,2,2,6,6-pentamethyl-4-aminopiperidine was added dropwise thereto and reacted at 0°C for 1 hour to obtain a solution of a terminal non-reactive urethane urea resin in diethylketone.
One hundred parts by mass of the resulting solution of a terminal non-reactive urethane urea resin, 6.3 parts by mass of Example 1 (a photochromic compound represented by Formula (1-7), an isomer mixture of 4,4'-methylenebis(cyclohexylisocyanate) (polyisocyanate compound)), 0.4 parts by mass of ethylenebis(oxyethylene) bis[3-(5-tert-butyl-4-hydroxy-m-tolyl) propionate] serving as an antioxidant, and 0.06 parts by mass of L-7001 manufactured by DuPont Toray Specialty Materials K.K. serving as a surfactant were added and stirred and mixed at room temperature to obtain a composition for forming a photochromic layer. […]

A short description of data set [3]: Photochromic property of photochromic cured product made by kneading method. Conditions: for Residual ratio: A96/A0 x 100 after 96 hours accelerated degradation, xenon weather meter X25; for Color developing density at 23°C: absorbance difference after 240 seconds irradiation at the maximum absorption wavelength of the same line. The procedure:
as §1
First, the photochromic compound obtained in Example 1, an additive, and a polymerizable compound were mixed to obtain a curable composition. The polymerizable compound was a combination of the following polymerizable monomers: • · 1,3-Bis(isocyanatomethyl)cyclohexane: 36.7 parts by mass • · Pentaerythritol tetrakis(3-mercaptopropionate): 39.4 parts by mass • · Polyoxyethylene polyoxypropylene lauryl ether (WONDERSURF 140 manufactured by AOKI OIL INDUSTRIAL Co., Ltd.): 17.4 parts by mass • · 1-Decanethiol: 2.8 parts by mass • · RX-1 prepared by the method described in Patent Document 14: 3.8 parts by mass
Note that, in the curable composition, the photochromic compound was added in an amount of 0.106 mmol taking a total amount of the polymerizable monomers as 100 g.
The following additives were used: • · Dimethyltin dichloride: 0.05 parts by mass • · Irganox 245: 0.1 parts by mass • · 2-Ethylhexyl […]: 0.6 parts by mass
After the thus-prepared curable composition was thoroughly defoamed, it was poured into a glass mold with a gap of 1 mm and polymerized by casting polymerization. […] After the polymerization, the resulting cured product was removed from the glass mold to obtain a photochromic cured product with a thickness of 1 mm. The resulting photochromic cured product was evaluated in the same manner as for Example 23.
Photochromic cured products were produced using the photochromic compounds shown in Table 4 in the same manner as in Example 50.

Take `CCCC1(C)c2cc(C)ccc2-c2c1c1c(c3cc(C)ccc23)OC(c2ccc(C)cc2)(c2ccc(OC)cc2)C=C1` (stereo not drawn) [Formula (1-5)]: in data set [1], the “Color fading half-life at 23°C” value was 2.28 min and the Residual ratio is recorded as 62%. For the same compound, in data set [2], the Residual ratio came to 82%; the “Color developing density at 23°C” value is 0.65 - and 1.11 -. Also, in data set [3], the Residual ratio is 71%; the “Color developing density at 23°C” value was 0.66 - and 1.10 -.
With `CCCCC1(CC)c2ccccc2-c2c1c1c(c3cc(OC)c(C)cc23)OC(c2ccc(OC)cc2)(c2ccc(OCCC)cc2)C=C1` (stereo not drawn) [Formula (2-2)], in data set [1], the “Color fading half-life at 23°C” value was determined as 1.65 min and the Residual ratio stood at 68%. Further, the “Color developing density at 23°C” value in data set [2] is 0.89 - and 0.83 -. In data set [3], the Residual ratio was found to be 78%; the “Color developing density at 23°C” value is 0.90 - and 0.89 -.
With `CCCC1(CC)c2ccccc2-c2c1c1c(c3cc(OC)c(Sc4c(C)cccc4C)cc23)OC(c2ccc(OC)cc2)(c2ccc(N3CCOCC3)cc2)C=C1` (stereo not drawn) [Formula (4-5)], the “Color fading half-life at 23°C” value in data set [1] is 0.717 min. In addition, the Residual ratio is 90% in data set [2]; 79% and 77% in data set [3]. The “Color developing density at 23°C” value was 0.76 - and 0.75 - in data set [2]; 0.77 - and 0.74 - in data set [3].
Turning to `CCC1(C)c2ccccc2-c2c1c1c(c3cc(OC)c(-c4ccc(OC)cc4OC)cc23)OC(c2ccc(OC)cc2)(c2ccc(N(C)c3ccccc3)cc2)C=C1` (stereo not drawn) [Formula (13-2)], the Residual ratio was 63% in data set [1]; 82% and 83% in data set [2]; 72% and 71% in data set [3]. The “Color developing density at 23°C” value in data set [2] was 0.74 - and 1.05 -; in data set [3], 0.75 - and 1.05 -.
